# Laboratory results reported in US8624040B2, “Substituted hydroxamic acids and uses thereof” (Millennium Pharmaceuticals, Inc., priority 2009, dated 2014).
# Biological target: T1, purified human HDAC6 (Homo sapiens, UniProt Q9UBN7)
# T1 construct: purchased BPS Bioscience 5006
# T1 sequence (Q9UBN7 1-1215): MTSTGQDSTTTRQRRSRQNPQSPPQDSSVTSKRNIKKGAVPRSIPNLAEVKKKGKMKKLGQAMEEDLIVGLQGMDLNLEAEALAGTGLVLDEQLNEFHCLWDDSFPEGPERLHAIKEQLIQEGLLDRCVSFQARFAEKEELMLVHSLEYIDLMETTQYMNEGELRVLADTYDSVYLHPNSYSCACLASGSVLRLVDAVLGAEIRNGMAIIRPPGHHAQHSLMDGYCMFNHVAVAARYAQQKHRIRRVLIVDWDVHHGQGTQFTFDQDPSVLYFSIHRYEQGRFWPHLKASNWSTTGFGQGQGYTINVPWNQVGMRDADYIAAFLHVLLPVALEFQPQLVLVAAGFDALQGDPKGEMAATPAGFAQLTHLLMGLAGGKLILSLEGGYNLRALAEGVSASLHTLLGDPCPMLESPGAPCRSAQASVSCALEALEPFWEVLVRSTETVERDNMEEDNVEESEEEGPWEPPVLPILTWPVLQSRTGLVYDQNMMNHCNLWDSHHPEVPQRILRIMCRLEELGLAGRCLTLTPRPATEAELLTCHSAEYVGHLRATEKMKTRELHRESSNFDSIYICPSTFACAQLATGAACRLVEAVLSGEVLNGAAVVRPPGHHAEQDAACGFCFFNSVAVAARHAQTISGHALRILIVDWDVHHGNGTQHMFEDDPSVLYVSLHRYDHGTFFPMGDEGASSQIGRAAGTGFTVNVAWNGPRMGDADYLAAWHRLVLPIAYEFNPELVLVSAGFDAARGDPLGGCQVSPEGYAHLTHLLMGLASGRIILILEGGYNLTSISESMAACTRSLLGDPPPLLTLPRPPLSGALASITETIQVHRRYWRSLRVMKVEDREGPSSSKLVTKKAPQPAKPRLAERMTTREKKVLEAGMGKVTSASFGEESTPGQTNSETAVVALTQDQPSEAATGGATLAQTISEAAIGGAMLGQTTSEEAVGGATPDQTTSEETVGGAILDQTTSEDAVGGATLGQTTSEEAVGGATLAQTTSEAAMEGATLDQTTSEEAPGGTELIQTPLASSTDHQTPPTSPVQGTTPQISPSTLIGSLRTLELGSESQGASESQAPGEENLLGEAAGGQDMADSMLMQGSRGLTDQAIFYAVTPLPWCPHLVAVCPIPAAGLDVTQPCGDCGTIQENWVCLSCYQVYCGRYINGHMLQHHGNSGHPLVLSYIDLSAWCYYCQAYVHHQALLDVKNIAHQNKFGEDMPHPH
# Test: HDAC6 Enzyme Assay
# Format: biochemical
# Details: enzyme inhibition, substrate Ac-Arg-Gly-Lys(Ac)-AMC, 1 hour at 30° C.
# How it was run: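 Purified human HDAC6 incubated 1 h at 30 °C with Ac-Arg-Gly-Lys(Ac)-AMC peptide and compound; reaction stopped with trichostatin A, then trypsin releases AMC, read by fluorescence (Ex 340/Em 460 nm). IC50 from concentration-response curves relative to DMSO controls.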
row,IC50 [nM],SMILES
1,< 50,"O=C(NO)c1cc2c(s1)CN(C(=O)NC1CCCCC1)CC2 [Compound 76, N^6-cyclohexyl-N^2-hydroxy-4,7-dihydrothieno[2,3-c]pyridine-2,6(5H)-dicarboxamide]"
2,< 50,"O=C(NO)c1cc2c(s1)CN(C(=O)c1cc(F)cc(F)c1)CC2 [Compound 140, 6-(3,5-difluorobenzoyl)-N-hydroxy-4,5,6,7-tetrahydrothieno[2,3-c]pyridine-2-carboxamide]"
3,< 50,"O=C(NO)c1cc2c(s1)CN(C(=O)c1ccsc1)CC2 [Compound 5, N-hydroxy-6-(3-thienylcarbonyl)-4,5,6,7-tetrahydrothieno[2,3-c]pyridine-2-carboxamide]"
4,< 50,"CC(C)(C)OC(=O)N1CCc2sc(C(=O)NO)cc2C1 [Compound 212, tert-butyl 2-[(hydroxyamino)carbonyl]-6,7-dihydrothieno[3,2-c]pyridine-5(4H)-carboxylate]"
5,< 50,"Cc1c(C(=O)NO)sc2c1CN(C(=O)c1cccn1C)CC2 [Compound 194, N-hydroxy-3-methyl-5-[(1-methyl-1H-pyrrol-2-yl)carbonyl]-4,5,6,7-tetrahydrothieno[3,2-c]pyridine-2-carboxamide]"
6,> 1000,"CC1(C)CN(C(=O)Nc2ccc(C#N)cc2)Cc2cc(C(=O)NO)sc21 [Compound 196, N^5-(4-cyanophenyl)-N2-hydroxy-7,7-dimethyl-6,7-dihydrothieno[3,2-c]pyridine-2,5(4H)-dicarboxamide]"
7,< 50,"CCc1cc(C(=O)N2CCc3cc(C(=O)NO)sc3C2)n(C)n1 [Compound 186, 6-[(3-ethyl-1-methyl-1H-pyrazol-5-yl)carbonyl]-N-hydroxy-4,5,6,7-tetrahydrothieno[2,3-c]pyridine-2-carboxamide]"
8,< 50,"CC(C)(C)c1ccc(C(=O)N2CCc3cc(C(=O)NO)sc3C2)cc1 [Compound 64, 6-(4-tert-butylbenzoyl)-N-hydroxy-4,5,6,7-tetrahydrothieno[2,3-c]pyridine-2-carboxamide]"
9,< 50,"O=C(NO)c1cc2c(s1)CN(C(=O)c1ccc(C(F)(F)F)cc1)CC2 [Compound 171, N-hydroxy-6-(4-(trifluoromethyl)benzoyl)-4,5,6,7-tetrahydrothieno[2,3-c]pyridine-2-carboxamide]"
10,< 50,"Cc1nc(C(F)(F)F)c(C(=O)N2CCc3cc(C(=O)NO)sc3C2)s1 [Compound 11, N-hydroxy-6-{[2-methyl-4-(trifluoromethyl)-1,3-thiazol-5-yl]carbonyl}-4,5,6,7-tetrahydrothieno[2,3-c]pyridine-2-carboxamide]"
11,> 1000,"COc1ccc(CN2CCc3cc(C(=O)NO)sc3C2)cc1 [Compound 111, N-hydroxy-6-(4-methoxybenzyl)-4,5,6,7-tetrahydrothieno[2,3-c]pyridine-2-carboxamide]"
12,< 50,"Nc1[nH]ncc1C(=O)N1CCc2cc(C(=O)NO)sc2C1 [Compound 159, 6-[(5-amino-1H-pyrazol-4-yl)carbonyl]-N-hydroxy-4,5,6,7-tetrahydrothieno[2,3-c]pyridine-2-carboxamide]"
13,50 to 100,"O=C(NO)c1cc2c(s1)CN(C(=O)c1cccc(O)n1)CC2 [Compound 81, N-hydroxy-6-[(6-hydroxypyridin-2-yl)carbonyl]-4,5,6,7-tetrahydrothieno[2,3-c]pyridine-2-carboxamide]"
14,< 50,"Cn1nc(C(C)(C)C)cc1C(=O)N1CCc2cc(C(=O)NO)sc2C1 [Compound 88, 6-[(3-tert-butyl-1-methyl-1H-pyrazol-5-yl)carbonyl]-N-hydroxy-4,5,6,7-tetrahydrothieno[2,3-c]pyridine-2-carboxamide]"
15,< 50,"COc1cc(OC)nc(-c2ccc(C(=O)N3CCc4sc(C(=O)NO)cc4C3)cc2)n1 [Compound 32, 5-(4-(4,6-dimethoxypyrimidin-2-yl)benzoyl)-N-hydroxy-4,5,6,7-tetrahydrothieno[3,2-c]pyridine-2-carboxamide]"
16,< 50,"CCCCc1ccc(NC(=O)N2CCc3cc(C(=O)NO)sc3C2)cc1 [Compound 169, N^6-(4-butylphenyl)-N^2-hydroxy-4,7-dihydrothieno[2,3-c]pyridine-2,6(5H)-dicarboxamide]"
17,< 50,"CC(C)(C)c1ccc(CC(=O)N2CCc3cc(C(=O)NO)sc3C2)cc1 [Compound 188, 6-[(4-tert-butylphenyl)acetyl]-N-hydroxy-4,5,6,7-tetrahydrothieno[2,3-c]pyridine-2-carboxamide]"
18,< 50,"CC1(C(=O)N2CCc3cc(C(=O)NO)sc3C2)CCCCC1 [Compound 3, N-hydroxy-6-[(1-methylcyclohexyl)carbonyl]-4,5,6,7-tetrahydrothieno[2,3-c]pyridine-2-carboxamide]"
19,< 50,"Cc1onc(-c2ccccc2)c1C(=O)N1CCc2cc(C(=O)NO)sc2C1 [Compound 107, N-hydroxy-6-[(5-methyl-3-phenylisoxazol-4-yl)carbonyl]-4,5,6,7-tetrahydrothieno[2,3-c]pyridine-2-carboxamide]"
20,< 50,"O=C(NO)c1cc2c(s1)CN(C(=O)C13CC4CC(CC(C4)C1)C3)CC2 [Compound 14, 6-[1-adamantylcarbonyl]-N-hydroxy-4,5,6,7-tetrahydrothieno[2,3-c]pyridine-2-carboxamide]"
21,50 to 100,"O=C(NO)c1cc2c(s1)CN(C(=O)C1CCCCN1S(=O)(=O)c1ccccc1)CC2 (stereo not shown) [Compound 15, N-hydroxy-6-{[1-(phenylsulfonyl)piperidin-2-yl]carbonyl}-4,5,6,7-tetrahydrothieno[2,3-c]pyridine-2-carboxamide]"
22,50 to 100,"COc1cc(OC)nc(C(=O)N2CCc3cc(C(=O)NO)sc3C2)n1 [Compound 100, 6-[(4,6-dimethoxypyrimidin-2-yl)carbonyl]-N-hydroxy-4,5,6,7-tetrahydrothieno[2,3-c]pyridine-2-carboxamide]"
